From ChEMBL document CHEMBL5620353, “Novel antifungal triazoles with alkynyl-methoxyl side chains: Design, synthesis, and biological activity evaluation” (Eur J Med Chem, 2023)
Values after ≈ are worked out from the molar mass of the structure shown. Active and inactive are the calls of the source. No cut-off for these calls is given here.

Experiments:
Candida albicans [1] = assay: Antifungal activity against Candida albicans SC5314 assessed as inhibition of fungal growth incubated for 48 hrs by microbroth dilution method; type: functional
Candida albicans [2] = assay: Antifungal activity against Candida albicans 10231 assessed as inhibition of fungal growth incubated for 48 hrs by microbroth dilution method; type: functional
Nakaseomyces glabratus [3] = assay: Antifungal activity against Candida glabrata 537 assessed as inhibition of fungal growth incubated for 48 hrs by microbroth dilution method; type: functional
Candida parapsilosis = assay: Antifungal activity against Candida parapsilosis 22019 assessed as inhibition of fungal growth incubated for 48 hrs by microbroth dilution method; type: functional; settings: Lodderomyces parapsilosis
Pichia kudriavzevii = assay: Antifungal activity against Candida krusei 4996 assessed as inhibition of fungal growth incubated for 48 hrs by microbroth dilution method; type: functional
Candida tropicalis = assay: Antifungal activity against Candida tropicalis 8915 assessed as inhibition of fungal growth incubated for 48 hrs by microbroth dilution method; type: functional
Aspergillus fumigatus = assay: Antifungal activity against Aspergillus fumigatus 7544 assessed as inhibition of fungal growth incubated for 72 hrs by microbroth dilution method; type: functional
Nakaseomyces glabratus [4] = assay: Potency index, ratio of fluconazole MIC to test compound MIC for antifungal activity against Candida glabrata 537 assessed as inhibition of fungal growth incubated for 48 hrs by microbroth dilution method; type: functional
Candida albicans [5] = assay: Antifungal activity against fluconazole-resistant Candida albicans 901 assessed as inhibition of fungal growth incubated for 48 hrs by microbroth dilution method; type: functional
Candida albicans [6] = assay: Antifungal activity against fluconazole-resistant Candida albicans 904 assessed as inhibition of fungal growth incubated for 48 hrs by microbroth dilution method; type: functional
[Candida] auris [7] = Antifungal activity against fluconazole-resistant Candida auris 918 assessed as inhibition of fungal growth incubated for 48 hrs by microbroth dilution method; type: functional; settings: Candidozyma auris
[Candida] auris [8] = Antifungal activity against fluconazole-resistant Candida auris 919 assessed as inhibition of fungal growth incubated for 48 hrs by microbroth dilution method; type: functional; settings: Candidozyma auris
Cryptococcus neoformans = assay: Antifungal activity against Cryptococcus neoformans 32,609 assessed as reduction in fungal growth and viability at 0.5 to 1 ug/ml incubated for 48 hrs by spot assay; type: functional, organism-based; settings: dose 0.5-1 µg/ml
Candida albicans [9] = assay: Antifungal activity against Candida albicans SC5314 assessed as reduction in fungal growth measured after 6 to 24 hrs by optical density based method; type: functional, organism-based; settings: dose 0.0625-16 µg/ml, time 6-24 hrs
Candida albicans [10] = assay: Inhibition of biofilm formation in Candida albicans SC5314 at 64 ug/ml incubated for 24 hrs by XTT reduction assay relative to control; type: functional
Candida albicans [11] = assay: Antibiofilm activity against Candida albicans SC5314 preformed biofilms incubated for 24 hrs by XTT reduction assay; type: functional, organism-based; settings: dose 0.25-64 µg/ml
[12] = Cytotoxicity against HUVEC cells assessed as cell survival at <16 ug/ml incubated for 24 hrs by CCK-8 assay relative to control; type: toxicity, cell-based; settings: human, dose < 16 µg/ml, read-out: Survival
[13] = Cytotoxicity against HUVEC cells assessed as cell survival at 128 ug/ml incubated for 24 hrs by CCK-8 assay relative to control; type: toxicity, cell-based; settings: human, at 128 µg/mL, read-out: Survival
[14] = Cytotoxicity against HUVEC cells assessed as reduction in cell survival incubated for 24 hrs by CCK-8 assay; type: toxicity, cell-based; settings: human
[15] = Selectivity index, ratio of IC50 for HUVEC cells to MIC for Candida glabrata 537; type: toxicity; settings: human, HUVEC cells versus Candida glabrata 537; read-out: Selectivity Index
Cytochrome P450 2C9 = Cytochrome P450 2C9 (Homo sapiens, UniProt P11712); assay: Inhibition of human CYP2C9 using diclofenac as substrate prewarmed for 10 mins followed by NADPH addition and measured after 10 mins by LC-MS/MS analysis; type: ADME
Cytochrome P450 2C9, sequence (P11712 whole entry): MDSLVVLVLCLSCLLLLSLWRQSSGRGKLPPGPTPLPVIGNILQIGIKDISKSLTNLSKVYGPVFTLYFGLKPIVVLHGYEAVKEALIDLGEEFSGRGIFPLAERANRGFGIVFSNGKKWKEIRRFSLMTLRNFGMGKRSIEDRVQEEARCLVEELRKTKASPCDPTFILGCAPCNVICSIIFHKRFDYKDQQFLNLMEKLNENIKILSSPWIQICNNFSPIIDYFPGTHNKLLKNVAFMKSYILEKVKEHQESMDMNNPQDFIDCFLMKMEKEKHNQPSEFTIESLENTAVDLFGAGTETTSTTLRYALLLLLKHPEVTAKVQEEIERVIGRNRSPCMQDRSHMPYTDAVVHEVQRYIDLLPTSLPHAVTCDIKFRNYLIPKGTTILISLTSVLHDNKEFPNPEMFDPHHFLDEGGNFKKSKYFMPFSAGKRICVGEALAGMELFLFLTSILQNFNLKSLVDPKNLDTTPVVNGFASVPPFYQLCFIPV

Cytochrome P450 2C19 = Cytochrome P450 2C19 (Homo sapiens, UniProt P33261); assay: Inhibition of human CYP2C19 using mephenytoin as substrate prewarmed for 10 mins followed by NADPH addition and measured after 10 mins by LC-MS/MS analysis; type: ADME
Cytochrome P450 2C19, sequence (P33261 whole entry): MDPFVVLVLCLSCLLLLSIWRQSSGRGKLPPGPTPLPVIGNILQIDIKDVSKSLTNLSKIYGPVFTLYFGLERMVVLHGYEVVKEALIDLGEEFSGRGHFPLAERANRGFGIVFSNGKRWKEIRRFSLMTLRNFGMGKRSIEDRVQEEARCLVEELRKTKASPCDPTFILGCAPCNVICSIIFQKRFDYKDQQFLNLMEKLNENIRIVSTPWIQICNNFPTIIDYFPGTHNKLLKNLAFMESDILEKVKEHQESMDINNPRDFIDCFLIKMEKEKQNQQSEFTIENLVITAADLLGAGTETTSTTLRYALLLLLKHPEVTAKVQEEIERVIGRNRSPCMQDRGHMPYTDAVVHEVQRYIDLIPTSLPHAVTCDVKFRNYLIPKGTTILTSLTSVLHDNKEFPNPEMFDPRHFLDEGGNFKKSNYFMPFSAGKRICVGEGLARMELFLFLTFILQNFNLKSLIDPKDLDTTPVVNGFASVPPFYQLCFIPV

Cytochrome P450 2D6 = Cytochrome P450 2D6 (Homo sapiens, UniProt P10635); assay: Inhibition of human CYP2D6 using dextromethorphan as substrate prewarmed for 10 mins followed by NADPH addition and measured after 10 mins by LC-MS/MS analysis; type: ADME
Cytochrome P450 2D6, sequence (P10635 whole entry): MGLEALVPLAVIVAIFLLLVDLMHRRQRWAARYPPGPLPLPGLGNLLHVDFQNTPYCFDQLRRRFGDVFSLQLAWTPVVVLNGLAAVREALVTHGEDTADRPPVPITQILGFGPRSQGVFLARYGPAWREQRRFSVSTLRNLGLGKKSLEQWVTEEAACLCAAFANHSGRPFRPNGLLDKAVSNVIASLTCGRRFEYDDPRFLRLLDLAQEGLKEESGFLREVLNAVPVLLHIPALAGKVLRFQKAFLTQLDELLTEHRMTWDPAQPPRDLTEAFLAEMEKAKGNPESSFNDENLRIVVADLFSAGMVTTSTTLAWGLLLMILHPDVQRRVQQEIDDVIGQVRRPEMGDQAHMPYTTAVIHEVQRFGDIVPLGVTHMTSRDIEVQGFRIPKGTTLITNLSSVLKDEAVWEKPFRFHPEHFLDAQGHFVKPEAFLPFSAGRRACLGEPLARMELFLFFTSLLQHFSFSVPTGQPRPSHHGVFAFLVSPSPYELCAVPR

Cytochrome P450 3A4 = Cytochrome P450 3A4 (Homo sapiens, UniProt P08684); assay: Inhibition of human CYP3A4 using midazolam as substrate prewarmed for 10 mins followed by NADPH addition and measured after 10 mins by LC-MS/MS analysis; type: ADME
Cytochrome P450 3A4, sequence (P08684 whole entry): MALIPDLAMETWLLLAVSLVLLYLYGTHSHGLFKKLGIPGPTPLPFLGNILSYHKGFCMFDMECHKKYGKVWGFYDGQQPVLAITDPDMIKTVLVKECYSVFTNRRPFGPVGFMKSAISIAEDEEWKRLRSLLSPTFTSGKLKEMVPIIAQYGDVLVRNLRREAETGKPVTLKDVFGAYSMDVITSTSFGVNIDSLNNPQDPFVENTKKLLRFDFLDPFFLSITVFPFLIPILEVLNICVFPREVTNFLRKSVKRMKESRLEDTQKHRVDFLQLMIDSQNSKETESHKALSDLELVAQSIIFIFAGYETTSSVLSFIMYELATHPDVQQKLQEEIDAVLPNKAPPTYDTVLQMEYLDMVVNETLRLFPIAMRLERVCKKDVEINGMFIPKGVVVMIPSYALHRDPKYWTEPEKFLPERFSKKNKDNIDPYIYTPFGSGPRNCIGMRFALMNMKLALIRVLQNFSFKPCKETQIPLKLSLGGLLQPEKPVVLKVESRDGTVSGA

[16] = Metabolic stability in human liver microsomes assessed as half life at 1 uM preincubated for 10 mins followed by NADPH addition and measured upto 60 mins by LC-MS/MS analysis; type: ADME, Microsome; settings: time < 70 min
[17] = Metabolic stability in human liver microsomes assessed as intrinsic clearance at 1 uM preincubated for 10 mins followed by NADPH addition and measured upto 60 mins by LC-MS/MS analysis; type: ADME, Microsome; settings: time < 70 min, read-out: CLH
Saccharomyces cerevisiae [18] = assay: Antifungal activity against recombinant Saccharomyces cerevisiae Y525 overexpressing CaMdr1 assessed as inhibition of fungal growth incubated for 48 hrs by microbroth dilution method; type: functional
Saccharomyces cerevisiae [19] = assay: Antifungal activity against recombinant Saccharomyces cerevisiae Y2411 overexpressing ScErg11 assessed as inhibition of fungal growth incubated for 48 hrs by microbroth dilution method; type: functional
Saccharomyces cerevisiae [20] = assay: Antifungal activity against recombinant Saccharomyces cerevisiae Y2300 overexpressing ScErg11 assessed as inhibition of fungal growth incubated for 48 hrs by microbroth dilution method; type: functional
Saccharomyces cerevisiae [21] = assay: Antifungal activity against recombinant Saccharomyces cerevisiae Y2513 overexpressing ScErg11 Y140H assessed as inhibition of fungal growth incubated for 48 hrs by microbroth dilution method; type: functional
Saccharomyces cerevisiae [22] = assay: Antifungal activity against recombinant Saccharomyces cerevisiae Y2374 overexpressing CgErg11 assessed as inhibition of fungal growth incubated for 48 hrs by microbroth dilution method; type: functional
Saccharomyces cerevisiae [23] = assay: Antifungal activity against recombinant Saccharomyces cerevisiae Y2462 overexpressing ScErg11 ScNcp1 assessed as inhibition of fungal growth incubated for 48 hrs by microbroth dilution method; type: functional
Saccharomyces cerevisiae [24] = assay: Antifungal activity against recombinant Saccharomyces cerevisiae Y2721 overexpressing CpErg11 CpCpr assessed as inhibition of fungal growth incubated for 48 hrs by microbroth dilution method; type: functional

| Compound | MIC (Candida albicans [1]) | MIC (Candida albicans [2]) | MIC (Nakaseomyces glabratus [3]) | MIC (Candida parapsilosis) | MIC (Pichia kudriavzevii) | MIC (Candida tropicalis) | MIC (Aspergillus fumigatus) | Ratio (Nakaseomyces glabratus [4]) | MIC (Candida albicans [5]) | MIC (Candida albicans [6]) | MIC ([Candida] auris [7]) | MIC ([Candida] auris [8]) | Activity (Cryptococcus neoformans) | Activity (Candida albicans [9]) | inhibition at 64 µg/mL (Candida albicans [10]) | Activity (Candida albicans [11]) | viability at 24 h [12] | viability at 24 h, 128 ug/ml [13] | IC50 at 24 h [14] | selectivity ratio [15] | other results |
| --- | --- | --- | --- | --- | --- | --- | --- | --- | --- | --- | --- | --- | --- | --- | --- | --- | --- | --- | --- | --- | --- |
| C[C@@H](OCC#Cc1ccncc1)[C@](O)(Cn1cncn1)c1ccc(F)cc1F | ≤ 0.125 µg/mL | 32 µg/mL (≈ 83.2 µM) | ≤ 0.125 µg/mL | ≤ 0.125 µg/mL | 4 µg/mL (≈ 10.4 µM) | 32 µg/mL (≈ 83.2 µM) | 4 µg/mL (≈ 10.4 µM) | >=8 | 32 µg/mL (≈ 83.2 µM) | 32 µg/mL (≈ 83.2 µM) | 16 µg/mL (≈ 41.6 µM) | 16 µg/mL (≈ 41.6 µM) | Active | Dose-Dependent Effect | 43.4% | Dose-Dependent Effect | > 80% | 28.7% | 64.9 µg/mL (≈ 169 µM) | > 500 | IC50 (Cytochrome P450 2C9): 39 nM; IC50 (Cytochrome P450 2C19): 394 nM; IC50 (Cytochrome P450 2D6): 5810 nM; IC50 (Cytochrome P450 3A4): 309 nM; half-life at 1 µM [16]: 7.35 min; microsomal CLint at 1 µM [17]: 188 µL/min/mg; MIC (Saccharomyces cerevisiae [18]): 0.25 µg/mL; MIC (Saccharomyces cerevisiae [19]): 0.008 µg/mL; MIC (Saccharomyces cerevisiae [20]): 0.031 µg/mL; MIC (Saccharomyces cerevisiae [21]): 0.031 µg/mL; MIC (Saccharomyces cerevisiae [22]): 0.063 µg/mL; MIC (Saccharomyces cerevisiae [23]): 0.063 µg/mL; MIC (Saccharomyces cerevisiae [24]): 0.063 µg/mL |
| C[C@@H](OCC#Cc1ccc(F)cc1F)[C@](O)(Cn1cncn1)c1ccc(F)cc1F | ≤ 0.125 µg/mL | 8 µg/mL (≈ 19.1 µM) | ≤ 0.125 µg/mL | 0.5 µg/mL (≈ 1.19 µM) | 4 µg/mL (≈ 9.54 µM) | 32 µg/mL (≈ 76.3 µM) | 4 µg/mL (≈ 9.54 µM) | >=8 | 32 µg/mL (≈ 76.3 µM) | 16 µg/mL (≈ 38.2 µM) | 16 µg/mL (≈ 38.2 µM) | 16 µg/mL (≈ 38.2 µM) | Active | Dose-Dependent Effect | 37% | Dose-Dependent Effect | > 80% | 36% | 76.4 µg/mL (≈ 182 µM) | > 500 | IC50 (Cytochrome P450 2C9): 23 nM; IC50 (Cytochrome P450 2C19): 73 nM; IC50 (Cytochrome P450 2D6): 23800 nM; IC50 (Cytochrome P450 3A4): 566 nM; half-life at 1 µM [16]: 50.8 min; microsomal CLint at 1 µM [17]: 26.2 µL/min/mg; MIC (Saccharomyces cerevisiae [18]): 0.25 µg/mL; MIC (Saccharomyces cerevisiae [19]): 0.008 µg/mL; MIC (Saccharomyces cerevisiae [20]): 0.063 µg/mL; MIC (Saccharomyces cerevisiae [21]): 0.031 µg/mL; MIC (Saccharomyces cerevisiae [22]): 0.063 µg/mL; MIC (Saccharomyces cerevisiae [23]): 0.063 µg/mL; MIC (Saccharomyces cerevisiae [24]): 0.063 µg/mL |
| C[C@@H](OCC#Cc1ccc(C#N)cc1)[C@](O)(Cn1cncn1)c1ccc(F)cc1F | ≤ 0.125 µg/mL | 8 µg/mL (≈ 19.6 µM) | ≤ 0.125 µg/mL | 1 µg/mL (≈ 2.45 µM) | 8 µg/mL (≈ 19.6 µM) | ≤ 0.125 µg/mL | 1 µg/mL (≈ 2.45 µM) | >=8 | 16 µg/mL (≈ 39.2 µM) | 16 µg/mL (≈ 39.2 µM) | 32 µg/mL (≈ 78.4 µM) | 16 µg/mL (≈ 39.2 µM) | Active | Dose-Dependent Effect | 43.9% | Dose-Dependent Effect | > 80% | 34.9% | 88.5 µg/mL (≈ 217 µM) | > 500 | IC50 (Cytochrome P450 2C9): 34 nM; IC50 (Cytochrome P450 2C19): 566 nM; IC50 (Cytochrome P450 2D6): 27200 nM; IC50 (Cytochrome P450 3A4): 607 nM; half-life at 1 µM [16]: 54.5 min; microsomal CLint at 1 µM [17]: 25.6 µL/min/mg; MIC (Saccharomyces cerevisiae [18]): 0.25 µg/mL; MIC (Saccharomyces cerevisiae [19]): 0.008 µg/mL; MIC (Saccharomyces cerevisiae [20]): 0.031 µg/mL; MIC (Saccharomyces cerevisiae [21]): 0.016 µg/mL; MIC (Saccharomyces cerevisiae [22]): 0.031 µg/mL; MIC (Saccharomyces cerevisiae [23]): 0.031 µg/mL; MIC (Saccharomyces cerevisiae [24]): 0.063 µg/mL |
